According to ChEMBL document CHEMBL1201862, “PubChem BioAssay data set” (2004):
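Method: 48-hour compound exposure of cells in 96-well plates, five concentrations, linear interpolation of endpoints. GI50 = concentration required for 50% inhibition of growth.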 The source made the active and inactive calls. Cut-off read from the data, not from the text of the source: active = GI50 up to about 1.1 µM and inactive = higher.

Experiments:
Assay in all cases: NCI tumour cell line growth inhibition, 48 h
[1] = system: A549
[2] = system: COLO 205
[3] = system: HCC 2998
[4] = system: Hs-578T
[5] = system: LOX IMVI
[6] = system: MCF7
[7] = system: MDA-MB-435
[8] = system: MDA-N
[9] = system: Malme-3M
[10] = system: NCI-H226
[11] = system: NCI-H23
[12] = system: NCI-H522
[13] = system: NCI/ADR-RES
[14] = system: RPMI-8226
[15] = system: RXF 393
[16] = system: SN12C
[17] = system: U-251
[18] = system: UACC-62
[19] = system: HOP-92
[20] = system: MOLT-4

For `CCOC(=O)Cc1cc(=O)[nH]c(-n2[nH]c(C)c(CCO)c2=O)n1`, the GI50 [1] was > 100 µM (inactive), the GI50 [2] was > 100 µM (inactive) and the GI50 [3] was > 100 µM (inactive). For the same compound, the GI50 [4] was > 100 µM (inactive), the GI50 [5] was > 100 µM (inactive) and the GI50 [6] was > 100 µM (inactive). For the same compound, the GI50 [7] was > 100 µM (inactive), the GI50 [8] was > 100 µM (inactive) and the GI50 [9] was > 100 µM (inactive). For the same compound, the GI50 [10] was > 100 µM (inactive), the GI50 [11] was > 100 µM (inactive) and the GI50 [12] was > 100 µM (inactive). For the same compound, the GI50 [13] was > 100 µM (inactive), the GI50 [14] was > 100 µM (inactive) and the GI50 [15] was > 100 µM (inactive). The GI50 [16] was > 100 µM (inactive), the GI50 [17] was > 100 µM (inactive) and the GI50 [18] was > 100 µM (inactive).
`C=CCN1CCC(c2cc(C(=O)OCC)[nH]c2-c2cc(C)no2)C1=O` (configuration not stated) was tested, and the GI50 [1] was > 100 µM (inactive), the GI50 [2] was > 100 µM (inactive) and the GI50 [3] was > 100 µM (inactive). The GI50 [19] was > 100 µM (inactive), the GI50 [4] was > 100 µM (inactive) and the GI50 [5] was > 100 µM (inactive). For the same compound, the GI50 [6] was > 100 µM (inactive), the GI50 [7] was > 100 µM (inactive) and the GI50 [8] was > 100 µM (inactive). For the same compound, the GI50 [20] was 79.6 µM (inactive), the GI50 [9] was > 100 µM (inactive) and the GI50 [10] was > 100 µM (inactive). For the same compound, the GI50 [11] was > 100 µM (inactive), the GI50 [13] was > 100 µM (inactive) and the GI50 [14] was > 100 µM (inactive). For the same compound, the GI50 [15] was > 100 µM (inactive), the GI50 [16] was > 100 µM (inactive) and the GI50 [17] was > 100 µM (inactive). The GI50 [18] was > 100 µM (inactive).
In the case of `N#CCCN(CCC#N)c1ccc(/C=C2\N=C(c3ccccc3)N(c3ccc(Cl)cc3)C2=O)cc1`, the GI50 [1] is reported as > 100 µM (inactive), the GI50 [2] is reported as > 100 µM (inactive) and the GI50 [19] is reported as > 100 µM (inactive). For the same compound, the GI50 [4] was 20.6 µM (inactive), the GI50 [5] was 2.5 µM (inactive) and the GI50 [6] was > 100 µM (inactive). The GI50 [7] was 45.5 µM (inactive), the GI50 [8] was > 100 µM (inactive) and the GI50 [20] was > 100 µM (inactive). The GI50 [9] was > 100 µM (inactive), the GI50 [10] was > 100 µM (inactive) and the GI50 [12] was > 100 µM (inactive). The GI50 [13] was > 100 µM (inactive), the GI50 [14] was > 100 µM (inactive) and the GI50 [15] was > 100 µM (inactive). The GI50 [16] was > 100 µM (inactive), the GI50 [17] was > 100 µM (inactive) and the GI50 [18] was 39.7 µM (inactive).
With `O=C1CCC2CCC1C2` (configuration not stated) the GI50 [1] was > 100 µM (inactive), the GI50 [2] was > 100 µM (inactive) and the GI50 [3] was > 100 µM (inactive). The GI50 [4] was > 100 µM (inactive), the GI50 [5] was > 100 µM (inactive) and the GI50 [6] was > 100 µM (inactive). The GI50 [7] was > 100 µM (inactive), the GI50 [8] was > 100 µM (inactive) and the GI50 [20] was > 100 µM (inactive). For the same compound, the GI50 [9] was > 100 µM (inactive), the GI50 [10] was > 100 µM (inactive) and the GI50 [11] was > 100 µM (inactive). For the same compound, the GI50 [13] was > 100 µM (inactive), the GI50 [14] was > 100 µM (inactive) and the GI50 [15] was 96.4 µM (inactive). The GI50 [16] was > 100 µM (inactive), the GI50 [17] was > 100 µM (inactive) and the GI50 [18] was > 100 µM (inactive).
`O=c1[nH]c(=O)n(C2CC(O)C(CO)O2)cc1/N=N/NCCCc1ccccc1` (configuration not stated) was tested, and the GI50 [1] was > 100 µM (inactive), the GI50 [2] was > 100 µM (inactive) and the GI50 [3] was > 100 µM (inactive). For the same compound, the GI50 [19] was > 100 µM (inactive), the GI50 [4] was > 100 µM (inactive) and the GI50 [5] was > 100 µM (inactive). The GI50 [6] was > 100 µM (inactive), the GI50 [7] was > 100 µM (inactive) and the GI50 [8] was > 100 µM (inactive). The GI50 [20] was > 100 µM (inactive), the GI50 [9] was > 100 µM (inactive) and the GI50 [10] was > 100 µM (inactive). The GI50 [11] was > 100 µM (inactive), the GI50 [13] was > 100 µM (inactive) and the GI50 [15] was > 100 µM (inactive). The GI50 [16] was > 100 µM (inactive) and the GI50 [18] was > 100 µM (inactive).
With `O=C(COc1ccc(OCC(=O)N/N=C/c2ccc(-c3ccc(Cl)cc3Cl)o2)c(Cl)c1)N/N=C/c1ccc(-c2ccc(Cl)cc2Cl)o1` the GI50 [1] was 85.5 µM (inactive), the GI50 [2] was 0.942 µM (active) and the GI50 [3] was 29.8 µM (inactive). The GI50 [4] was 80.2 µM (inactive), the GI50 [5] was 57.9 µM (inactive) and the GI50 [6] was 41.8 µM (inactive). The GI50 [7] was 24.1 µM (inactive), the GI50 [8] was 31.6 µM (inactive) and the GI50 [20] was 0.0298 µM (active). The GI50 [9] was 82.8 µM (inactive), the GI50 [10] was 45.7 µM (inactive) and the GI50 [11] was > 100 µM (inactive). The GI50 [12] was 81.8 µM (inactive), the GI50 [13] was 12.3 µM (inactive) and the GI50 [14] was 12.6 µM (inactive). The GI50 [15] was 33.6 µM (inactive), the GI50 [16] was > 100 µM (inactive) and the GI50 [17] was 46.7 µM (inactive). The GI50 [18] was 27.9 µM (inactive).
For `COc1cc(/C=N\c2nc(-c3ccc(NS(=O)(=O)c4ccc(Cl)c(OC)c4)cc3)cs2)ccc1O`, the GI50 [1] was 74.6 µM (inactive), the GI50 [2] was 30.1 µM (inactive) and the GI50 [19] was 24.9 µM (inactive). The GI50 [4] was 62.5 µM (inactive), the GI50 [5] was 35.7 µM (inactive) and the GI50 [6] was 21 µM (inactive). For the same compound, the GI50 [7] was 35.4 µM (inactive), the GI50 [8] was 29.6 µM (inactive) and the GI50 [20] was 16.4 µM (inactive). For the same compound, the GI50 [9] was 45 µM (inactive), the GI50 [10] was > 100 µM (inactive) and the GI50 [11] was 31.1 µM (inactive). For the same compound, the GI50 [12] was 18.8 µM (inactive), the GI50 [13] was > 100 µM (inactive) and the GI50 [14] was 21 µM (inactive). The GI50 [15] was 27.9 µM (inactive), the GI50 [16] was 42.3 µM (inactive) and the GI50 [18] was 9.71 µM (inactive).
